According to patent publication EP2674155B1, “Association of resveratrol and carboxymethylglucan” (priority 2012, dated 2013):

How the values were obtained:
[1] = type: physicochemical
Protocol: The solubility of triacetyl-resveratrol and of trimethylether of resveratrol in an aqueous solution (of the same composition described in example 1) in presence of CMG was evaluated. In particular, the solubility in aqueous phase of triacetyl-resveratrol and of trimethyl ether of resveratrol was evaluated at first and this value was considered unitary.

[2] = Solubility of resveratrol in buffered aqueous solution in presence of CMG, determined by HPLC; type: physicochemical
Protocol: (§1) The chromatographic method devised for determining resveratrol provides the use of a HPLC Waters system constituted by a pump, 600 model, by a Waters self-sampler mod. 717 and by a UV-Visible Photodiode array detector mod 2996. The system is handled by the Millenium^32 software. The used chromatographic column is a Symmetry C-18 with length of 15 cm, associated to a specific pre-column of same material with length of 1 cm. The elution is performed under isocratic conditions by using the following mixtures: • 1) 30% [Acetic acid 0.1 % in methanol] e 70% [Acetic acid 0.1 % in water] • 2) 80% [Acetic acid 10% in water] and 20% [Acetonitrile]. For the measurements 50 µL of sample are taken, diluted in 500µL of mobile phase and an aliquot of 50µL is injected in HPLC.
The solutions of CMG and resveratrol have always been prepared in a buffered, isotonic, physiological pH-containing aqueous solution, constituted by: • dipotassium phosphate 0.74% • sodium chloride 0.42% • potassium phosphate 0.175%
All solutions were cold-prepared and without using any organic solvent.
In order to evaluate the solubility, with consequent effect on the bioavailability thereof, formulations were prepared containing resveratrol in association with CMG at increasing concentrations (from 0.5 mg/ml to 10 mg/ml) in a ratio 1:1, in an aqueous solution of the above-mentioned composition. […]

[3] = Stability over time of resveratrol in aqueous solution (25°C, closed, protected from light), HPLC; type: physicochemical; settings: resveratrol alone 0.03 mg/ml
Protocol: as §1
The examined concentration of the solution of resveratrol was 0.03 mg/ml, corresponding to the maximum quantity which can be solubilized in water of the original product. […] The two solutions were kept under the same conditions described above for the solution of resveratrol only and they were evaluated in different moments as from the time of the preparation thereof. […]

[4] = system: VERO cellular line; assay: Cellular metabolic activity, MTT assay; type: cell-based; settings: VERO cells, resveratrol 0.5 mg/ml (2.2 mM), 6 hours after exposition, versus not treated cells (CTRL)
Protocol: The cellular metabolic activity is evaluated on VERO cellular line, by means of MTT cellular proliferation assay (3-(4,5-dimethylthiazole-2-il)-2,5-diphenyltetrazolium bromide). The test with MTT is a simple method for determining the metabolic activation of the cells and it is based upon the action of the mitochondrial enzyme succinate dehydrogenase reducing the tetrazolium salts in crystals of a bluish product called formazan. Therefore the reaction can take place only in the metabolically active cells and the value of optical density (O.D.), obtained by means of spectrophotometric reading, can be correlated to the quantity of existing vital cells.
Upon considering the application of the association CMG-resveratrol for the formulation of pharmaceutical products, dietary supplies, medical devices, cosmetic products, functional pieces of food, veterinary products, with consequent interaction with the biological systems of men and animals in general, even the possible cytotoxycity was evaluated. In particular tests of cellular metabolic activity in presence of resveratrol and CMG on VERO cellular line were performed. […]
6 hours after exposition to these substances MTT colouring agent was added, then the formazan produced by the metabolically active cells was extracted with isopropanol and the optical density measured at 570 nm by subtracting the reference value at 690 nm. […]

| concentration of CMG from which highly solubilizing action on resveratrol is confirmed [2] [µg/mL] | solubilization higher than what reported in literature [2] | stability of resveratrol in buffer solution ([3]; after 2 months) | stability of resveratrol in buffer solution ([3]; after 7 months) | reduction in the cellular metabolic activity [4] [%] | Structure (SMILES) | increase of solubility in presence of CMG, relative to solubility of the pure compound considered unitary [1] |
| --- | --- | --- | --- | --- | --- | --- |
| – | – | – | – | – | COc1ccc(/C=C/c2cc(OC)cc(OC)c2)cc1 [trimethylether of resveratrol] | three times |
| ≥ 250 | at least 100 times | strong degradation | no more detected | 20 | Oc1ccc(C=Cc2cc(O)cc(O)c2)cc1 [resveratrol, 3,4',5-trihydroxystilbene] | – |
| – | – | – | – | – | CC(=O)Oc1ccc(/C=C/c2cc(OC(C)=O)cc(OC(C)=O)c2)cc1 [triacetylresveratrol, triacetyl-resveratrol] | more than one and a half time |
